In article PMC5908784, “Extracellular loops 2 and 3 of the calcitonin receptor selectively modify agonist binding and efficacy” (Biochemical Pharmacology, 2018):
Substitutions are numbered along the chain they refer to. Where a SMILES comes first, the peptide text is derived from it. Bridges are numbered along the chain shown (N, C = ends).

Legend:
Format in all cases: cell-based
hCTR P360A = biological target: T1, hCTR P360A (Homo sapiens, UniProt P30988, P360A); assay: cAMP accumulation; conditions: mean ± S.E.M.; for Emax: cAMP maximal response, SEM; for EC50: cAMP, CV1-FlpIn cells, 30 min, IBMX
T1 construct: expressed in transfected cells
T1 sequence (P30988 25-474 P360A): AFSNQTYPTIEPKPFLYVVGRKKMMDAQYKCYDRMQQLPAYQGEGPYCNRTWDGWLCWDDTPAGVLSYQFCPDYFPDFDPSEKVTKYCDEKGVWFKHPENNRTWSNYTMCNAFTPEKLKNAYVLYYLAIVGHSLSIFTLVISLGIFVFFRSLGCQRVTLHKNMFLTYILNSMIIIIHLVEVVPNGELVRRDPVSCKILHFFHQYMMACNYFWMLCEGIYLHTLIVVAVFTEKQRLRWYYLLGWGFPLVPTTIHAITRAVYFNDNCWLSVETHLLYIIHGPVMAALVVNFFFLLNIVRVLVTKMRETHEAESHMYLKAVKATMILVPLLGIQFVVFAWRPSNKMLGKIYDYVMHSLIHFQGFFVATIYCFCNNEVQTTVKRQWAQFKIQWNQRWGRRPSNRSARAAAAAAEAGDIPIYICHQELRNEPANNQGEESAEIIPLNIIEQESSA
Outline: (§1)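 Concentration-response curves, fitted to a 3-parameter logistic equation, gave EC50 and Emax; these reflect functional affinity, efficacy and stimulus-response coupling combined. Stimulation lasted 30 min with IBMX, and data were scaled to the 100 μM forskolin response.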

hCTR I371A = biological target: T2, hCTR I371A (Homo sapiens, UniProt P30988, I371A); assay: cAMP accumulation; conditions: mean ± S.E.M.; for Emax: cAMP maximal response, SEM; for EC50: cAMP, CV1-FlpIn cells, 30 min, IBMX
T2 construct: c-Myc (N); expressed in transfected cells
T2 sequence (P30988 25-474 I371A): T1 sequence (P30988 25-474 P360A) with A336P, I347A
Outline: as §1

hCTR N365A = biological target: T3, hCTR N365A (Homo sapiens, UniProt P30988, N365A); assay: IP1 accumulation; conditions: mean ± S.E.M.; for Emax: IP1 maximal response, SEM
T3 construct: c-Myc (N); expressed in transfected cells
T3 sequence (P30988 25-474 N365A): T1 sequence (P30988 25-474 P360A) with A336P, N341A
Protocol: (§2) Cells (2.5 × 10^4 cells/well) were plated into 96 well trays and cultured overnight. Cells were stimulated with increasing concentration of ligands for 60 min in the presence of LiCl. Samples were lysed and endogenous IP1 was measured using an IP-One HTRF® assay kit (CisBio) as specified by the manufacturer. Data were normalized to the maximal response elicited by 100 μM of ATP.
(§3) Data were corrected for radioligand occupancy using the Cheng-Prusoff equation in Prism; as such data are reported as pKi. Emax and EC50 were estimated from concentration-response curves using with a 3-parameter logistic equation in Prism (v7). These values are a composite of functional affinity, efficacy and stimulus response coupling. […] Significance was accepted at P < 0.05.

hCTR S292A = biological target: T4, hCTR S292A (Homo sapiens, UniProt P30988, S292A); assay: IP1 accumulation; conditions: mean ± S.E.M.; for Emax: IP1 maximal response, SEM
T4 construct: expressed in transfected cells
T4 sequence (P30988 25-474 S292A): T1 sequence (P30988 25-474 P360A) with S268A, A336P
Protocol: as §2, §3

hCTR V293A = biological target: T5, hCTR V293A (Homo sapiens, UniProt P30988, V293A); assay: IP1 accumulation; conditions: mean ± S.E.M.; for Emax: IP1 maximal response, SEM
T5 construct: c-Myc (N); expressed in transfected cells
T5 sequence (P30988 25-474 V293A): T1 sequence (P30988 25-474 P360A) with V269A, A336P
Protocol: as §2, §3

[1] = IP1, CV1-FlpIn cells, 60 min, LiCl

Structure (SMILES) | Emax (hCTR P360A) | Emax (hCTR I371A) | Emax (hCTR N365A) | Emax (hCTR S292A) | Emax (hCTR V293A) | EC50 (hCTR P360A) | EC50 (hCTR I371A) | EC50 (hCTR N365A; [1]) | EC50 (hCTR S292A; [1]) | EC50 (hCTR V293A; [1])
CC(C)C[C@H](NC(=O)[C@H](CC(N)=O)NC(=O)[C@H](CC(N)=O)NC(=O)[C@H](CO)NC(=O)[C@H](CO)NC(=O)[C@H](CCCNC(=N)N)NC(=O)[C@@H](NC(=O)[C@H](CC(C)C)NC(=O)[C@H](Cc1ccccc1)NC(=O)[C@H](CC(N)=O)NC(=O)[C@H](C)NC(=O)[C@H](CC(C)C)NC(=O)[C@H](CCCNC(=N)N)NC(=O)[C@H](CCC(N)=O)NC(=O)[C@@H](NC(=O)[C@H](C)NC(=O)[C@@H]1CSSC[C@H](NC(=O)[C@@H](N)CCCCN)C(=O)N[C@@H](CC(N)=O)C(=O)N[C@@H]([C@@H](C)O)C(=O)N[C@@H](C)C(=O)N[C@@H]([C@@H](C)O)C(=O)N1)[C@@H](C)O)C(C)C)C(=O)NCC(=O)N1CCC[C@H]1C(=O)N[C@H](C(=O)N[C@@H](CC(C)C)C(=O)N1CCC[C@H]1C(=O)N1CCC[C@H]1C(=O)N[C@H](C(=O)N[C@@H](CC(N)=O)C(=O)N[C@H](C(=O)NCC(=O)N[C@@H](CO)C(=O)N[C@@H](CC(N)=O)C(=O)N[C@H](C(=O)N[C@@H](Cc1ccc(O)cc1)C(N)=O)[C@@H](C)O)C(C)C)[C@@H](C)O)C(C)C [rAmy] | 115 ± 13% | 47 ± 7% |  |  |  |  |  |  |  | 
CC[C@H](C)[C@H](NC(=O)[C@H](C)NC(=O)[C@@H](NC(=O)[C@H](CCC(N)=O)NC(=O)[C@@H]1CCCN1C(=O)[C@H](Cc1ccccc1)NC(=O)[C@@H](NC(=O)[C@H](Cc1c[nH]cn1)NC(=O)[C@H](Cc1ccccc1)NC(=O)[C@H](CCCCN)NC(=O)[C@H](CC(N)=O)NC(=O)[C@H](Cc1ccccc1)NC(=O)[C@H](CC(=O)O)NC(=O)[C@H](CCC(N)=O)NC(=O)[C@@H](NC(=O)[C@H](Cc1ccc(O)cc1)NC(=O)[C@@H](NC(=O)CNC(=O)[C@H](CC(C)C)NC(=O)[C@H](CCSC)NC(=O)[C@@H]1CSSC[C@H](N)C(=O)NCC(=O)N[C@@H](CC(N)=O)C(=O)N[C@@H](CC(C)C)C(=O)N[C@@H](CO)C(=O)N[C@@H]([C@@H](C)O)C(=O)N1)[C@@H](C)O)[C@@H](C)O)[C@@H](C)O)[C@@H](C)O)C(=O)NCC(=O)N[C@H](C(=O)NCC(=O)N[C@@H](C)C(=O)N1CCC[C@H]1C(N)=O)C(C)C [hCT] | 152 ± 8% | 24 ± 2.7% | 81 ± 6% | 70 ± 6% | 87 ± 4% |  |  |  |  | 
CC(C)C[C@H](NC(=O)CNC(=O)[C@H](C)NC(=O)[C@H](CC(C)C)NC(=O)[C@H](CCCNC(=N)N)NC(=O)[C@H](Cc1cnc[nH]1)NC(=O)[C@@H](NC(=O)[C@@H](NC(=O)[C@@H]1CSSC[C@H](NC(=O)[C@H](C)N)C(=O)N[C@@H](CC(=O)O)C(=O)N[C@@H]([C@@H](C)O)C(=O)N[C@@H](C)C(=O)N[C@@H]([C@@H](C)O)C(=O)N1)C(C)C)[C@@H](C)O)C(=O)N[C@@H](CC(C)C)C(=O)N[C@@H](CO)C(=O)N[C@@H](CCCNC(=N)N)C(=O)N[C@@H](CO)C(=O)NCC(=O)NCC(=O)N[C@H](C(=O)N[C@H](C(=O)N[C@@H](CCCCN)C(=O)N[C@@H](CC(N)=O)C(=O)N[C@@H](CC(N)=O)C(=O)N[C@@H](Cc1ccccc1)C(=O)N[C@H](C(=O)N1CCC[C@H]1C(=O)N[C@H](C(=O)N[C@@H](CC(N)=O)C(=O)N[C@H](C(=O)NCC(=O)N[C@@H](CO)C(=O)N[C@@H](CCCCN)C(=O)N[C@@H](C)C(=O)N[C@@H](Cc1ccccc1)C(N)=O)C(C)C)[C@@H](C)O)C(C)C)C(C)C)C(C)C [hαCGRP] | 48 ± 5% | 58 ± 15% |  |  |  | 17.4 nM | 132 nM |  |  | 
CC(C)C[C@H](NC(=O)[C@H](CCCCN)NC(=O)CNC(=O)[C@H](CC(C)C)NC(=O)[C@@H](NC(=O)[C@@H]1CSSC[C@H](N)C(=O)N[C@@H](CO)C(=O)N[C@@H](CC(N)=O)C(=O)N[C@@H](CC(C)C)C(=O)N[C@@H](CO)C(=O)N[C@@H]([C@@H](C)O)C(=O)N1)C(C)C)C(=O)N[C@@H](CO)C(=O)N[C@@H](CCC(N)=O)C(=O)N[C@@H](CCC(=O)O)C(=O)N[C@@H](CC(C)C)C(=O)N[C@@H](Cc1c[nH]cn1)C(=O)N[C@@H](CCCCN)C(=O)N[C@@H](CC(C)C)C(=O)N[C@@H](CCC(N)=O)C(=O)N[C@H](C(=O)N[C@@H](Cc1ccc(O)cc1)C(=O)N1CCC[C@H]1C(=O)N[C@@H](CCCNC(=N)N)C(=O)N[C@H](C(=O)N[C@@H](CC(N)=O)C(=O)N[C@H](C(=O)NCC(=O)N[C@@H](CO)C(=O)NCC(=O)N[C@H](C(=O)N1CCC[C@H]1C(N)=O)[C@@H](C)O)[C@@H](C)O)[C@@H](C)O)[C@@H](C)O [sCT] | 100 ± 5% | 28 ± 2% | 66 ± 4% | 91 ± 6% | 109 ± 7% |  |  |  |  | 
CSCC[C@H](NC(=O)CNC(=O)[C@H](CO)NC(=O)[C@H](Cc1ccccc1)NC(=O)[C@H](CCCNC(=N)N)NC(=O)[C@H](Cc1c[nH]cn1)NC(=O)[C@H](Cc1ccccc1)NC(=O)[C@H](CC(N)=O)NC(=O)[C@H](CC(N)=O)NC(=O)[C@H](CC(C)C)NC(=O)[C@H](CC(N)=O)NC(=O)[C@H](CCCNC(=N)N)NC(=O)[C@H](Cc1c[nH]c2ccccc12)NC(=O)[C@H](Cc1ccc(O)cc1)NC(=O)[C@H](C)NC(=O)[C@H](CO)NC(=O)[C@H](CC(C)C)NC(=O)[C@@H](NC(=O)[C@@H]1CSSC[C@H](N)C(=O)N[C@@H](CO)C(=O)N[C@@H](CC(N)=O)C(=O)N[C@@H](CC(C)C)C(=O)N[C@@H](CO)C(=O)N[C@@H]([C@@H](C)O)C(=O)N1)C(C)C)C(=O)NCC(=O)N[C@@H](Cc1ccccc1)C(=O)NCC(=O)N1CCC[C@H]1C(=O)N[C@@H](CCC(=O)O)C(=O)N[C@H](C(=O)N1CCC[C@H]1C(N)=O)[C@@H](C)O [pCT] (H-CSNLSTCVLSAYWRNLNNFHRFSGMGFGPETP-NH2; disulfide 1-7) | 146 ± 13% | 35 ± 5% | 68 ± 6% | 92 ± 7% | 112 ± 10% | 0.132 nM | 0.0794 nM | 2.24 nM | 4.27 nM | 3.24 nM
